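Assay format: 96-well plates, 48-hour exposure. Abbreviation: GI50, concentration required for 50% inhibition of growth. The concentration for full growth arrest is given as TGI.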
Assays:
Assay in all cases: inhibition of tumour cell growth, NCI panel, 48 h
HCT-15 colon = tested on: HCT-15 colon
HOP-62 NSCLC = tested on: HOP-62 NSCLC
IGROV1 ovarian = tested on: IGROV1 ovarian
K-562 leukemia = tested on: K-562 leukemia
SF-539 CNS = tested on: SF-539 CNS
SK-MEL-5 melanoma = tested on: SK-MEL-5 melanoma
SW-620 colon = tested on: SW-620 colon
UACC-62 melanoma = tested on: UACC-62 melanoma
EKVX NSCLC = tested on: EKVX NSCLC
SR leukemia = tested on: SR leukemia

Structure (SMILES)	TGI (HCT-15 colon) [µM]	TGI (HOP-62 NSCLC) [µM]	TGI (IGROV1 ovarian) [µM]	TGI (K-562 leukemia) [µM]	TGI (SF-539 CNS) [µM]	TGI (SK-MEL-5 melanoma) [µM]	TGI (SW-620 colon) [µM]	TGI (UACC-62 melanoma) [µM]	TGI (EKVX NSCLC) [µM]	GI50 (HCT-15 colon) [µM]	GI50 (HOP-62 NSCLC) [µM]	GI50 (IGROV1 ovarian) [µM]	GI50 (K-562 leukemia) [µM]	GI50 (SF-539 CNS) [µM]	GI50 (SK-MEL-5 melanoma) [µM]	GI50 (SR leukemia) [µM]	TGI (SR leukemia) [µM]	GI50 (SW-620 colon) [µM]	GI50 (UACC-62 melanoma) [µM]	GI50 (EKVX NSCLC) [µM]
CCCCNC(=S)Nn1c(-c2ccccc2)nc2ccccc2c1=O	> 100	> 100	> 100	> 100	> 100	> 100	> 100	> 100												
C[N+](C)(C)CC(=O)N/N=C(/C=C/c1ccccc1)CC1OC(=O)c2ccccc21 (stereo unspecified)	> 100	> 100	> 100	> 100	> 100	> 100	> 100	> 100	> 100											
CC(C)Oc1cc(OCC(=O)O)cc(C(=O)N(CCC(N)=O)C(=O)Nc2ccc(C(=O)O)cc2OC(C)C)c1	> 100	> 100	> 100	> 100	> 100	> 100	> 100	> 100		> 100	> 100	> 100	> 100	> 100	> 100	> 100	> 100	> 100	> 100	
CC/C=C/[C@@H]1C=C[C@@H]2CCC[C@H]2[C@@H]1CC[C@H](O)[C@H](C)N	2.87	2.8	2.92	2.67	3.03	3.16	3	2.96	31.9	1.54	1.47	1.5	1.38	1.67	1.69	1.39	3	1.64	1.61	15.2
CC(=O)OC1COC(N2C(=O)C(=O)c3c(C)cc(Cl)nc32)C(OC(C)=O)C1OC(C)=O (stereo unspecified)	> 100	> 100	> 100	> 100	> 100	> 100	> 100	> 100	> 100								> 100			
COC1CC(OC2OC(CO)C(O)C(O)C2O)/C(=C\C#N)C(O)C1OC (stereo unspecified)	> 100	> 100	> 100		> 100	> 100	> 100	> 100	> 100								> 100			
C=C1C(=O)OC(CCCCCCCC)C1C(=O)O (stereo unspecified)	30.8	39.1	48.3	> 75.8	31.6	29.9	30.7	24.7	31.2	15.9	20.5	21.8	27.9	17	16.1	5.57	44.9	15.2	12.1	16.1
CC(C)NC(=O)OCc1nnn2c1C(OC(=O)NC(C)C)CC2 (stereo unspecified)	> 100		> 100	> 100	> 100	> 100	> 100	> 100	> 100								> 100			
CCCCN(CCCC)C(=Nc1ccccc1)N(CCCC)CCCC		20.5	23.1	10.4	24.6		15.8		17.5											
COC(=O)C1Cc2c([nH]c3ccccc23)[C@H](CC(C)C)N1 (stereo partly specified)		> 100	> 100	> 100	> 100		> 100	> 100	> 100								> 100			
CC(C)c1ccc2c(c1)CCC1C(C)(C)[C@@H](O)CC[C@]21C (stereo partly specified)	> 100	37.4	> 100	> 100	65.1	32.1		> 100									33.4			
COc1cc([C@@H]2c3cc4c(cc3[C@H](OC3OC5COC(c6ccccc6)OC5C(O)C3O)[C@H]3COC(=O)[C@H]23)OCO4)cc(OC)c1OC (stereo partly specified)	13.7	5.32	1.34	> 100		0.715	10.8	22.1	24.2	0.281	0.456	0.337	0.359		0.242	0.31	> 100	0.396	0.515	0.426
O=C(c1ccccc1)c1nnn(Cc2cccc(Cl)c2)c1C(=O)c1ccccc1	> 100	> 100	> 100	> 100		> 100	> 100	> 100	> 100								> 100			
O=C1CCCC1C(=O)Nc1ccc2ccccc2c1 (stereo unspecified)	> 100	> 100	> 100	> 100		> 100	> 100	> 100	> 100								> 100			
c1ccc([CH2][Sn]([CH2]c2ccccc2)([S]c2cccc3cccnc23)[S]c2cccc3cccnc23)cc1	0.476	6.94	0.849		0.662	1.18	0.813	0.496	2.03	0.2	0.764	0.289		0.26	0.299			0.21	0.211	0.666
CCCOC(=O)C1CCC(=O)N1C(=O)C(Cl)Cl (stereo unspecified)	> 100	> 100	> 100	> 100		> 100	> 100	> 100	> 100											
Cc1nc2c(cnn2-c2ccnc3c(C(F)(F)F)cccc23)c(=O)o1	> 100	> 100	> 100	> 100	> 100	> 100	> 100	> 100	> 100	> 100	> 100	> 100	> 100	> 100	> 100			> 100	93.9	> 100
C=C1C(=O)O[C@@H]2[C@@H]3O[C@@](C)(CC/C=C(\C)CCC[C@@H]2C)[C@H](O)C[C@@H]13	4.53	24	5.78	9.58	8.9	3.49	3.96	5.11	20.3	1.64		2.06	3.1	2.7	1.72			2.03	2.05	5.56

Structure (SMILES)	TGI (HCT-15 colon) [µM]	TGI (HOP-62 NSCLC) [µM]	TGI (IGROV1 ovarian) [µM]	TGI (K-562 leukemia) [µM]	TGI (SF-539 CNS) [µM]	TGI (SK-MEL-5 melanoma) [µM]	TGI (SW-620 colon) [µM]	TGI (UACC-62 melanoma) [µM]	TGI (EKVX NSCLC) [µM]	GI50 (HCT-15 colon) [µM]	GI50 (HOP-62 NSCLC) [µM]	GI50 (IGROV1 ovarian) [µM]	GI50 (K-562 leukemia) [µM]	GI50 (SF-539 CNS) [µM]	GI50 (SK-MEL-5 melanoma) [µM]	GI50 (SR leukemia) [µM]	TGI (SR leukemia) [µM]	GI50 (SW-620 colon) [µM]	GI50 (UACC-62 melanoma) [µM]	GI50 (EKVX NSCLC) [µM]
COc1ccc(C(=O)CC2(O)C(=O)Nc3c(Cl)ccc(Cl)c32)cc1 (stereo unspecified)	86.4	> 100	> 100	> 100	6.96	18.8	> 100	> 100		0.885	3.42	4.95	0.403	1.64	1.01	0.413	56.1	0.503	0.791	
COC1OC(OC)C2C(c3c(C)cc(C)cc3C)=NOC12 (stereo unspecified)	> 100	> 100	> 100	> 100		> 100	> 100	> 100	> 100								> 100			
CCc1ccc(Cc2ccc(CC)c(NC(=O)C(=O)Cc3nc4ccccc4nc3C)c2CC)c(CC)c1NC(=O)C(=O)Cc1nc2ccccc2nc1C	> 100	> 100	> 100	> 100	> 100	> 100	> 100	> 100	> 100											
COc1ccc(CCNc2nc3ccccc3c3[nH]c4ccccc4c23)cc1OC	10.4	24.4		10.2	4.06	3.21	6.07	26.6	45.3	2.86	10.9		2.45	2.17	1.8	2.32	7.93	2.34	13	22.6
CC(=O)NNc1nc(C)c(C(/C=C/c2ccc(/C=C/C(=N\NC(=O)c3ccncc3)c3sc(NNC(C)=O)nc3C)cc2)=N/NC(=O)c2ccncc2)s1	> 100	> 100	> 100	> 100	> 100	> 100	> 100	> 100	> 100											
CC(C)(O)Cn1c(=O)c(Oc2ccc(F)cc2F)cc2cnc(NC3CCOCC3)nc21	> 25	> 25	> 25	> 25	> 25	> 25	> 25	> 25		> 25	> 25	> 25	> 25	> 25	> 25	> 25	> 25	> 25	> 25	
Cc1ccc(S(=O)(=O)NCCCN(CCCNS(=O)(=O)c2ccc(C)cc2)S(=O)(=O)c2ccc(C)cc2)cc1	> 100	> 100	> 100	> 100	> 100		> 100	> 100									> 100			
CCOC(=O)c1cnc2ccc(Cl)cc2c1NCCCN(C)C	> 100	94.8	> 100	> 100	41.5	30.4	74.6	32.8		25.2	23	35	18.1	17.4	16	6.42	70.4	13.4	16.4	
NC(=O)C/C=C/CC(N)=O	> 100	> 100	> 100		> 100	> 100	> 100	> 100	> 100											
CN(C)CCCn1cnc2ncccc2c1=O		> 100	> 100	> 100	> 100	> 100	> 100	> 100	> 100								> 100			
Cc1cc2c(-c3nc4ccccc4[nH]3)c(O)c(O)cc2c(O)c1-c1c(C)cc2c(-c3nc4ccccc4[nH]3)c(O)c(O)cc2c1O	19.8	0.864	> 23.1	> 50	0.494		> 22		> 28.9	0.0156	0.0717	0.0416	0.0199	0.0344		0.035	> 50	0.0209		0.0315
C=C1C(=O)OC2C1C(OC(=O)/C(=C/C)COC(C)=O)CC1(CO1)C1C(OC(=O)/C(=C/C)CO)C=C(C)C21 (stereo unspecified)	4.91		3.82	10	19.5	5.05	9.56	3.01	4.16											
CN1CCC(O)C(CNC23CC4CC(CC(C4)C2)C3)C1 (stereo unspecified)		> 100		> 100	> 100	> 100	> 100	> 100	> 100								> 100			
CC[C@]1(O)C[C@@H]2CN(Cc3c([nH]c4ccccc34)[C@@](C(=O)OC)(c3cc4c(cc3OC)N(C)[C@H]3[C@@](O)(C(=O)OC)[C@H](OC(C)=O)[C@]5(CC)[C@@H]6C[C@@H]6CN6CC[C@]43[C@@H]65)C2)C1	> 4.38	> 4.38	> 4.38	> 4.38		1.85	> 4.38	> 4.38		2.78	0.153	0.452	0.0279	0.0363	0.119	0.0174	> 4.38	0.0701	0.0578	
Cc1c(C(=O)/C=C/c2ccco2)[n+](=O)c2ccccc2n1[O-]			> 100	> 100	> 100		> 100	> 100	> 100								> 100			
O=C(CC1Sc2ccccc2NC1=O)Nc1cccc(Cl)c1 (stereo unspecified)	> 100		> 100	> 100	> 100	> 100	> 100	> 100	84.8								97.5			
COc1ccc(C(=O)O/N=C2\CCCC\C2=C/c2ccccc2)cc1	> 100	> 100	> 100		81.2	> 100	> 100	> 100	> 100											
N#Cc1c([N+](=O)[O-])cc(C(F)(F)F)cc1[N+](=O)[O-]	24.9	32.8	20.8	5.08	11	23.8	8.77	12.2	32.9											

From PubChem BioAssay (NCI)
